{"source": "patent US8729047B2", "about": "“Compositions for inhibiting redox-sensitive GTPases” (Board of Regents, The University of Texas System, priority 2010, dated 2014)", "key": {"RhoC C20S": {"target": "RhoC C20S (Homo sapiens, UniProt P08134, C20S)", "sequence (P08134 whole entry C20S)": "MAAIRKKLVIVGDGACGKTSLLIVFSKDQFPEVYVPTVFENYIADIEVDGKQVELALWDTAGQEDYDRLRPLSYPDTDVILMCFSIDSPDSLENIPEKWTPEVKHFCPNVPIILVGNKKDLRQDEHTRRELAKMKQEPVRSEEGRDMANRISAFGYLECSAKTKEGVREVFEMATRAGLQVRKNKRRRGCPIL", "test": "RhoC expression (Western) and RhoC activity assay in cells", "assay_type": "cell-based", "design": "expressed in transfected cells; host or cells: human mammary epithelial (HME) cells", "conditions": "HME-C20S RhoC cells, 6-TG three days", "method": "(§1) FIG. 14. Determination of cell invasiveness in the presence and absence of thiopurines and/or redox agents. […] Western blot analysis representing the total expression of RhoC in these cells also is shown. (B) Experimental procedures for the determination of the time-dependent motility of cells using the QCM Cell Invasion Assay kit in the presence and absence of 6-TG and DETA/NO are described elsewhere herein.\n(§2) Cells were lysed in an extraction buffer containing 50 mM NaCl, 5 mM MgCl2, 1 mM ethylenediaminetetraacetic acid (EDTA), 0.1 mM diethylenetriaminepentaacetic acid (DTPA), and 0.1% NP40 in 150 mM TrisHCl (pH 8.0). The content of […] RhoC in cells then was determined by using Western analysis that relies on a monoclonal anti-RhoC antibody (Biocompare, South San Francisco, Calif.). To determine RhoC activity, the colorimetric RhoA activation assay Biochem Kit (Cytoskeleton, Denver, Colo.) was used essentially as described in the previous study (Hall et al. Neoplasia 10, 797-803 (2008)) except that the RhoC specific antibody (vide supra), instead of the RhoA antibody included in the assay kit, was used for this analysis."}, "SUM149 cells": {"tested_on": "SUM149 cells", "test": "MTT cell viability and caspase-3/8 assays", "assay_type": "cell-based, human", "from_the_text": "FIG. 25. […] (B) Caspase-3/8 assay: the apoptotic activity of sample cells treated with the apoptotic inducer was set to be 100%, and other results were then expressed as normalized values against the mean value associated with the treatment with the apoptotic inducer. For both (A) and (B), all values represent the mean values and standard error values from triplicate measurements."}, "RhoC [1]": {"target": "T1, RhoC (Homo sapiens, UniProt P08134)", "T1 sequence (P08134 whole entry)": "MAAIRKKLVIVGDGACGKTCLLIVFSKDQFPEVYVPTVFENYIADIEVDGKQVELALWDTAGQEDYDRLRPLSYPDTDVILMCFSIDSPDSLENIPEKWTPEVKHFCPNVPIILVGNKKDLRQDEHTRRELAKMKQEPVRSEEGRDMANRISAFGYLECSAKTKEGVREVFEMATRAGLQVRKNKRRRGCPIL", "test": "RhoC expression (Western) and RhoC activity assay in cells", "assay_type": "cell-based", "design": "endogenous in cells; host or cells: SUM149, SUM102, SW480, HCCLM3 (endogenous); HME-RhoC (transfected with wild type RhoC)", "method": "as §1, §2"}, "RhoC [2]": {"target": "T1, RhoC", "test": "Titration of .NO2-treated RhoC-6-TGDP complex with [3H]GDP with/without DTT (FIG. 16D)", "assay_type": "binding", "design": "made in house; host or cells: E. coli", "conditions": "presence of DTT; .NO2-pretreated 6-TGDP-loaded RhoC; read-out: appKD for [3H]GDP", "method": "FIG. 16. Kinetic properties of RhoC with 6-TGDP in the presence or absence of a redox agent. All kinetic analyses are described elsewhere herein. (A) ^appKD values of Rac1, RhoA, RhoC, and RhoC C20S for 6-TGDP were estimated to be 7.9, 11.6, 11.8, and 11.2 μM, respectively. ^trueKD values of Rac1, RhoA, and RhoC for 6-TGDP were then calculated to be 5.1, 10.8, 11.1, and 10.5 μM, respectively, by using a compensation equation, ^trueKD for 6-TGDP=^appKD for 6-TGDP/(1+[[^3H]GDP]/^trueKD for GDP) (Heo, J., and Hong, I. (2010) Biochemistry 49, 3965-3976), in conjunction with the values given. […] The GDP dissociation rates from RhoC C20S by NO, .NO2, and N2O3 were estimated to be 0.02×10^−3, 0.05×10^−3, and 0.04×10^−3 s^−1, respectively. […] (D) ^appKD values of RhoC for [^3H]GDP in the presence or absence of DTT were estimated to be 22.4 μM and […], respectively. ^appKD values of C20S RhoC for [^3H]GDP in the presence or absence of DTT were determined to be 24.8 μM and 25.2 μM, respectively. The regression values associated with these fits were >0.8595. […]\n(d) The effect of .NO2 on the dissociation of 6-TGDP from RhoC was determined by treating the RhoC-6-TGDP complex titration with various concentrations of [^3H]GDP in the presence and absence of a reducing agent of either dithiothreitol (DTT) or β-mercaptoethanol. […]"}, "Rac1": {"target": "Rac1 (Homo sapiens, UniProt P63000)", "design": "made in house; host or cells: E. coli", "conditions": "determined previously; read-out: trueKD GDP; cited from earlier work"}, "RhoA": {"target": "T2, RhoA (Homo sapiens, UniProt P61586)", "T2 construct": "made in house; host or cells: E. coli", "conditions": "known value (Morgan et al.); read-out: trueKD for GDP; cited from earlier work"}, "Rho proteins": {"tested_on": "Rho proteins", "test": "Binding affinity of 6-TGDP compared with GDP (Example 3)", "conditions": "all examined Rho proteins; FIG. 16A", "method": "(a) A competitive binding assay was performed to determine the binding affinity of Rho GTPase and 6-TGDP. The radiolabeled [^3H]GDP-loaded Rho protein (1 μM) was titrated with various concentrations of 6-TGDP. The titrated Rho protein sample then was spotted onto a nitrocellulose membrane. Each membrane was washed three times with the assay buffer, and radioactivity was determined using a Beckman-Coulter scintillation counter. The radioactivity of the sample (Rho protein-bound [^3H]GDP) was converted into, and thus plotted, as the fraction of mol GDP per mol total Rho protein. The apparent dissociation constant (^appKD) of the Rho protein with [^3H]GDP in the presence of 6-TGDP was determined by using Prism software to fit the titration curve to a hyperbola.\nThe RhoC and mutant RhoC bound GDP also can be competitively displaced with 6-TGDP (FIG. 16A). The binding affinities that 6-TGDP has for all of these examined Rho proteins are ˜2-fold weaker than that of GDP for Rho proteins (FIG. 16A)."}}, "data": [{"smiles": "Nc1nc2nc[nH]c2c(=S)[nH]1", "note": "[6-TG, 6-thioguanine]", "values": [{"measurement": "activity and total expression of RhoC C20S", "setting": "RhoC C20S", "value": "unchanged"}, {"measurement": "apoptotic effect (caspase, FIG. 25B)", "setting": "SUM149 cells; 6-TG", "value": "minimal"}, {"measurement": "viability and caspase activity", "setting": "SUM149 cells; 6-TG and DETA/NO, FIG. 25", "value": "minimally affected"}, {"measurement": "cell viability (MTT, FIG. 25A)", "setting": "SUM149 cells; 6-TG for 3 days", "value": "minimally affected"}, {"measurement": "level of total RhoC expression", "setting": "RhoC [1]; SUM149 and HME-RhoC cells, 6-TG three or more days", "value": "not changed"}, {"measurement": "RhoC activity", "setting": "RhoC [1]; SUM149 and HME-RhoC cells, both 6-TG and DETA/NO (or GSNO), three days", "value": "essentially no RhoC activity was detected"}, {"measurement": "activity of RhoC", "setting": "RhoC [1]; SW480 and HCCLM3 cells, 6-TG and a NO donor, not shown", "value": "drastically diminished"}]}, {"smiles": "Nc1nc2c(ncn2[C@@H]2O[C@H](COP(=O)(O)OP(=O)(O)O)[C@@H](O)[C@H]2O)c(=O)[nH]1", "note": "[GDP]", "values": [{"measurement": "Kd", "setting": "RhoC [2]", "value": 22.4, "unit": "µM"}, {"measurement": "Kd", "setting": "Rac1", "value": 1800, "unit": "nM"}, {"measurement": "Kd", "setting": "RhoA", "value": 13, "unit": "µM"}]}, {"smiles": "Nc1nc2c(ncn2[C@@H]2O[C@H](COP(=O)(O)OP(=O)(O)O)[C@@H](O)[C@H]2O)c(=S)[nH]1", "note": "[6-TGDP, 6-thioguanosine diphosphate]", "values": [{"measurement": "binding affinity of 6-TGDP weaker than that of GDP", "setting": "Rho proteins", "value": "~2", "unit": "fold"}]}]}
